Reference: PubChem BioAssay (NCI)
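In this assay, cells in 96-well plates receive the compound at five concentrations for 48 hours. Endpoints are linearly interpolated between the surrounding concentrations. TGI is the concentration that stops growth completely.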

Assays:
Assay in all cases: NCI tumour cell line growth inhibition, 48 h
786-0 renal = system: 786-0 renal
A498 renal = system: A498 renal
A549 NSCLC = system: A549 NSCLC
ACHN renal = system: ACHN renal
BT-549 breast = system: BT-549 breast
CAKI-1 renal = system: CAKI-1 renal
CCRF-CEM leukemia = system: CCRF-CEM leukemia
COLO 205 colon = system: COLO 205 colon
DU-145 prostate = system: DU-145 prostate
EKVX NSCLC = system: EKVX NSCLC
HCC-2998 colon = system: HCC-2998 colon
HCT-116 colon = system: HCT-116 colon
HCT-15 colon = system: HCT-15 colon
HOP-62 NSCLC = system: HOP-62 NSCLC
HOP-92 NSCLC = system: HOP-92 NSCLC
HS 578T breast = system: HS 578T breast
HT29 colon = system: HT29 colon
IGROV1 ovarian = system: IGROV1 ovarian
K-562 leukemia = system: K-562 leukemia
KM12 colon = system: KM12 colon
LOX IMVI melanoma = system: LOX IMVI melanoma
M14 melanoma = system: M14 melanoma
MALME-3M melanoma = system: MALME-3M melanoma
MCF7 breast = system: MCF7 breast
MDA-MB-231 breast = system: MDA-MB-231 breast
MDA-MB-435 = system: MDA-MB-435
MDA-N = system: MDA-N
MOLT-4 leukemia = system: MOLT-4 leukemia
NCI-H226 lung = system: NCI-H226 lung
NCI-H23 lung = system: NCI-H23 lung
NCI-H522 lung = system: NCI-H522 lung
NCI/ADR-RES ovarian = system: NCI/ADR-RES ovarian
OVCAR-3 ovarian = system: OVCAR-3 ovarian
OVCAR-4 ovarian = system: OVCAR-4 ovarian
OVCAR-5 ovarian = system: OVCAR-5 ovarian
OVCAR-8 ovarian = system: OVCAR-8 ovarian
PC-3 prostate = system: PC-3 prostate
RPMI-8226 leukemia = system: RPMI-8226 leukemia
RXF 393 renal = system: RXF 393 renal
SF-268 CNS = system: SF-268 CNS
SF-295 CNS = system: SF-295 CNS
SF-539 CNS = system: SF-539 CNS
SK-MEL-2 melanoma = system: SK-MEL-2 melanoma
SK-MEL-28 melanoma = system: SK-MEL-28 melanoma
SK-MEL-5 melanoma = system: SK-MEL-5 melanoma
SK-OV-3 ovarian = system: SK-OV-3 ovarian
SN12C renal = system: SN12C renal
SNB-19 CNS = system: SNB-19 CNS
SNB-75 CNS = system: SNB-75 CNS
SR leukemia = system: SR leukemia
SW-620 colon = system: SW-620 colon
T-47D breast = system: T-47D breast
TK-10 renal = system: TK-10 renal
U251 CNS = system: U251 CNS
UACC-257 melanoma = system: UACC-257 melanoma
UACC-62 melanoma = system: UACC-62 melanoma
UO-31 renal = system: UO-31 renal
NCI-H460 lung = system: NCI-H460 lung

Measured: TGI

O=c1[nH]c(=O)n(C2CC(O)C(CO)O2)c2nc3ccc4cc5ccccc5cc4c3nc12 (centres undefined)
not listed: NCI-H460 lung
> 100 µM: all other assays above

Cn1c2ccccc2c(=O)c2cccc(C(=O)NCC(=O)O)c21
not listed: A498 renal | CAKI-1 renal | CCRF-CEM leukemia | HOP-92 NSCLC | NCI-H522 lung | RXF 393 renal
> 100 µM: all other assays above
